Reference: the NIST ThermoML archive (doi:10.1016/j.jct.2006.10.011)
“And” between values parts separate entries of the source, which are not always exact repeats. Equal values may be shown once.

Assay: molar heat capacity at constant pressure
Conditions: 101.33 kPa, Crystal

O [water]
Conditions	molar heat capacity at constant pressure
4.947 K, Low-temperature adiabatic	0.02384 J/K/mol
5 K, adiabatic	0.02458 J/K/mol
5.194 K, Low-temperature adiabatic	0.02762 J/K/mol
5.44 K, Low-temperature adiabatic	0.03248 J/K/mol
5.5 K, adiabatic	0.03354 J/K/mol
5.713 K, Low-temperature adiabatic	0.03773 J/K/mol
5.985 K, Low-temperature adiabatic	0.04456 J/K/mol
6 K, adiabatic	0.04478 J/K/mol
6.284 K, Low-temperature adiabatic	0.05186 J/K/mol
6.5 K, adiabatic	0.05874 J/K/mol
6.583 K, Low-temperature adiabatic	0.06156 J/K/mol
6.912 K, Low-temperature adiabatic	0.07207 J/K/mol
7 K, adiabatic	0.07583 J/K/mol
7.239 K, Low-temperature adiabatic	0.08574 J/K/mol
7.5 K, adiabatic	0.09651 J/K/mol
7.6 K, Low-temperature adiabatic	0.1009 J/K/mol
7.96 K, Low-temperature adiabatic	0.1206 J/K/mol
8 K, adiabatic	0.1212 J/K/mol
8.354 K, Low-temperature adiabatic	0.1416 J/K/mol
8.5 K, adiabatic	0.1503 J/K/mol
8.75 K, Low-temperature adiabatic	0.1684 J/K/mol
9 K, adiabatic	0.1842 J/K/mol
9.185 K, Low-temperature adiabatic	0.1972 J/K/mol
9.187 K, Low-temperature adiabatic	0.1979 J/K/mol
9.5 K, adiabatic	0.2231 J/K/mol
9.619 K, Low-temperature adiabatic	0.2343 J/K/mol
9.645 K, Low-temperature adiabatic	0.2352 J/K/mol
10 K, adiabatic	0.2672 J/K/mol
10.11 K, Low-temperature adiabatic	0.2752 J/K/mol and 0.2768 J/K/mol
10.59 K, Low-temperature adiabatic	0.3268 J/K/mol
10.6 K, Low-temperature adiabatic	0.3266 J/K/mol
11 K, adiabatic	0.3709 J/K/mol
11.12 K, Low-temperature adiabatic	0.3841 J/K/mol
11.66 K, Low-temperature adiabatic	0.4516 J/K/mol
12 K, adiabatic	0.4948 J/K/mol
12.23 K, Low-temperature adiabatic	0.5267 J/K/mol
12.82 K, Low-temperature adiabatic	0.6103 J/K/mol
13 K, adiabatic	0.6372 J/K/mol
13.43 K, Low-temperature adiabatic	0.7044 J/K/mol
14 K, adiabatic	0.7967 J/K/mol
14.08 K, Low-temperature adiabatic	0.8099 J/K/mol
14.75 K, Low-temperature adiabatic	0.9261 J/K/mol
15 K, adiabatic	0.9716 J/K/mol
15.46 K, Low-temperature adiabatic	1.058 J/K/mol
16 K, adiabatic	1.16 J/K/mol
16.19 K, Low-temperature adiabatic	1.197 J/K/mol
16.99 K, Low-temperature adiabatic	1.356 J/K/mol
17 K, adiabatic	1.358 J/K/mol
17.79 K, Low-temperature adiabatic	1.518 J/K/mol
18 K, adiabatic	1.564 J/K/mol
18.66 K, Low-temperature adiabatic	1.704 J/K/mol
19 K, adiabatic	1.777 J/K/mol
19.55 K, Low-temperature adiabatic	1.895 J/K/mol
19.6 K, Low-temperature adiabatic	1.908 J/K/mol
20 K, adiabatic	1.993 J/K/mol
20.58 K, Low-temperature adiabatic	2.12 J/K/mol
21.46 K, Low-temperature adiabatic	2.315 J/K/mol
22 K, adiabatic	2.433 J/K/mol
22.52 K, Low-temperature adiabatic	2.55 J/K/mol
23.59 K, Low-temperature adiabatic	2.78 J/K/mol
24 K, adiabatic	2.873 J/K/mol
24.75 K, Low-temperature adiabatic	3.037 J/K/mol
25.92 K, Low-temperature adiabatic	3.292 J/K/mol
26 K, adiabatic	3.306 J/K/mol
27.21 K, Low-temperature adiabatic	3.562 J/K/mol
28 K, adiabatic	3.728 J/K/mol
28.49 K, Low-temperature adiabatic	3.828 J/K/mol
29.94 K, Low-temperature adiabatic	4.128 J/K/mol
30 K, adiabatic	4.139 J/K/mol
31.38 K, Low-temperature adiabatic	4.423 J/K/mol
32 K, adiabatic	4.543 J/K/mol
32.99 K, Low-temperature adiabatic	4.735 J/K/mol
34 K, adiabatic	4.947 J/K/mol
34.59 K, Low-temperature adiabatic	5.067 J/K/mol
36 K, adiabatic	5.363 J/K/mol
36.02 K, Low-temperature adiabatic	5.371 J/K/mol
37.45 K, Low-temperature adiabatic	5.677 J/K/mol
38 K, adiabatic	5.804 J/K/mol
